Assay results from publication PMC10600247, “Impact of C- and N-terminal protection on the stability, metal chelation and antimicrobial properties of calcitermin” (Scientific Reports, 2023).
Residues, ends and D or L forms follow the SMILES beside them.

How the values were obtained:
S. aureus (ATCC 25293) = assay: In vitro anti-S. aureus CFU assay; assay type: cell-based, Staphylococcus aureus; settings: 3 h, pH 5.4; for mean CFU number ± S.D.: per 0.1 mL
Protocol: All microbes were grown at 37 °C in Tryptic Soy Broth (TSB; Biolife, Milan, Italy) or Tryptic Soy Agar plates (TSA, Biolife, Milan, Italy). Peptides were tested at a final concentration C = 0.128, 0.064, 0.032 mg/mL, in the presence or absence of ZnCl2 or CuCl2, at a M:L molar ratio 0.9:1. Briefly, all the microbes were expanded in TSB at 37 °C under agitation for 12 h and then sub-cultured by 1:10 dilution in TSB under the same conditions until reaching OD600nm = 0.3–0.4, as measured by spectrophotometric reading using a GENESYS 10S UV–Vis spectrophotometer (Thermo Scientific, Milan, Italy), corresponding to 0.9–1.2 × 10^7 colony forming units (CFU) per mL, 1.5–2 × 10^8 CFU/mL and 2.4–3.2 × 10^8 CFU/mL, for C. albicans, S. aureus and E. coli respectively. The cultures were then centrifuged at 4500 rpm for 10 min in a SL 8 centrifuge (TX-150 Rotor) (Thermo Scientific, Milan, Italy), and the cellular pellets were washed with PBS pH 5.4. Pelletized cultures were then suspended in 10 mL of PBS pH 5.4, then the suspensions were diluted to a final concentration of 10^4 CFU/mL. Aliquots of 100 µl (corresponding to 10^3 CFU) were seeded in each well of a 96-wells plate. 3 µl of TSB at pH 5.4 were added to each well to obtain a final 1.5% TSB concentration in the culture medium. Peptides were serially diluted in PBS pH 5.4 to C = 0.257, 0.128, and 0.064 mg/mL. ZnCl2 and CuCl2 solutions were added where requested to obtain a M:L ratio 0.9:1. 100 µl of the prepared peptides ± ZnCl2/CuCl2 solutions were then added to each well, obtaining the final 0.128, 0.064 and 0.032 mg/mL peptide concentrations in a total 0.2 mL volume. PBS alone and PBS + ZnCl2/CuCl2 solutions were included as controls. The plates were incubated at 37 °C on a platform rocker with slow stirring for 3 and 24 h. At the end of the incubation times, 100 µl aliquots were taken from each sample and diluted in PBS pH 5.4 to be seeded on TSA plates. Specifically, aliquots were diluted 1:10 at 3 h, and 1:200, 1:100,000 and 1:10 at 24 h, for C. albicans, E. coli, and S. aureus respectively. After incubation for 24 h at 37 °C, grown CFUs were enumerated. Samples were assayed in triplicate in two independent experiments. Student’s t-test was used for the evaluation of significance in biological tests; a p value ≤ 0.05 was considered significant.

[1] = T = 298 K, I = 0.1 M (KCl), charges omitted
Description: Stability constants for proton and metal complexes were obtained from pH-metric titration curves registered at T = 298 K and ionic strength 0.1 M (KCl). The potentiometric apparatus was previously described. Solutions were titrated with 0.1 M carbonate-free KOH. The electrode was daily calibrated for hydrogen ion concentration by titrating HNO3 with the standard base solution, under the same experimental conditions as above. The asymmetry potential and the slope of the electrode couple were computed by means of […][41] and Glee[42] programs. The purities and exact concentrations of the ligand solutions were determined by the Gran method. The […][44] program was employed for the overall formation constant (β) calculations, referred to the following equilibrium equation: pM + qL + rH ⇆ MpLqHr (charges omitted; p is 0 in the case of ligand protonation; r can be negative). The computed standard deviations (referring to random errors only) were given by the program itself and are shown in parentheses as uncertainties on the last significant figure. Hydrolysis constants for metal ions were taken from the literature[45],[46]. The distribution and competition diagrams were computed using the HYSS program.
1. Wild-type calcitermin: thermodynamic data
Wild-type calcitermin (WT) has been previously investigated by our research group in aqueous solutions and ionic medium NaClO4.1 For the sake of comparison, potentiometric studies of WT and its copper and zinc complexes have been performed in a different ionic medium (KCl 0.1 M). The study of the speciation under different experimental conditions, changing ionic medium and metal-ligand ratio, is essential to comprehensively describe the thermodynamics of calcitermin, which is usually found in multicomponent media like biological fluids.
Table S1. Equilibrium constants for protonation of WT and its Cu2+ and Zn2+ complex formation at T = 298 K and I = 0.1 M (KCl). Values in parentheses are standard deviations on the last significant figure.

[2] = peptide 0.032 mg/mL + CuCl2 (0.9:1)
[3] = peptide 0.032 mg/mL + ZnCl2 (0.9:1)
[4] = peptide 0.064 mg/mL + CuCl2 (0.9:1)
[5] = peptide 0.064 mg/mL + ZnCl2 (0.9:1)
[6] = peptide 0.128 mg/mL + CuCl2 (0.9:1)

In the case of `CC[C@H](C)[C@H](NC(=O)[C@H](C)NC(=O)[C@@H](N)C(C)C)C(=O)N[C@@H](C)C(=O)N[C@@H](CC(C)C)C(=O)N[C@@H](CCCCN)C(=O)N[C@@H](C)C(=O)N[C@@H](C)C(=O)N[C@@H](Cc1c[nH]cn1)C(=O)N[C@@H](Cc1ccc(O)cc1)C(=O)N[C@@H](Cc1c[nH]cn1)C(=O)N[C@H](C(=O)N[C@@H](Cc1c[nH]cn1)C(=O)N[C@@H](CCCCN)C(=O)N[C@@H](CCC(=O)O)C(=O)O)[C@@H](C)O` [WT, VAIALKAAHYHTHKE, reference compound] (H-VAIALKAAHYHTHKE-OH), the “CFU decrease/increase with respect to untreated controls” value (from here on “CFU decrease/increase”) (S. aureus (ATCC 25293); [2]) is reported as “+30%”, the “mean CFU number ± S.D.” value (S. aureus (ATCC 25293); [2]) is reported as 209 ± 44 CFU and the “CFU decrease/increase” value (S. aureus (ATCC 25293); [3]) is reported as “+5%”. For the same compound, the “mean CFU number ± S.D.” value (S. aureus (ATCC 25293); [3]) was 169 ± 40 CFU, the “CFU decrease/increase” value (S. aureus (ATCC 25293); [4]) was “+9%” and the “mean CFU number ± S.D.” value (S. aureus (ATCC 25293); [4]) was 175 ± 30 CFU. For the same compound, the “CFU decrease/increase” value (S. aureus (ATCC 25293); [5]) was -14%, the “mean CFU number ± S.D.” value (S. aureus (ATCC 25293); [5]) was 139 ± 20 CFU and the “CFU decrease/increase” value (S. aureus (ATCC 25293); [6]) was “+42%”. The “mean CFU number ± S.D.” value (S. aureus (ATCC 25293); [6]) was 229 ± 55 CFU, the “CFU decrease/increase” value (S. aureus (ATCC 25293); peptide 0.128 mg/mL + ZnCl2 (0.9:1), listed as WT calcitermin) was -41% and the “mean CFU number ± S.D.” value (S. aureus (ATCC 25293); peptide 0.128 mg/mL + ZnCl2 (0.9:1)) was 96 ± 21 CFU. For the same compound, the “CFU decrease/increase” value (S. aureus (ATCC 25293); peptide alone 0.032 mg/mL) was -9.3%, the “mean CFU number ± S.D.” value (S. aureus (ATCC 25293); peptide alone 0.032 mg/mL) was 146 ± 7 CFU and the “CFU decrease/increase” value (S. aureus (ATCC 25293); peptide alone 0.064 mg/mL) was -1.2%. The “mean CFU number ± S.D.” value (S. aureus (ATCC 25293); peptide alone 0.064 mg/mL) was 159 ± 45 CFU, the “CFU decrease/increase” value (S. aureus (ATCC 25293); peptide alone 0.128 mg/mL) was -1.8% and the “mean CFU number ± S.D.” value (S. aureus (ATCC 25293); peptide alone 0.128 mg/mL) was 158 ± 59 CFU. For the same compound, the “logβ [CuH2L]” value [1] was 33.77(4), the “logβ [CuH3L]” value [1] was 40.77(4) and the “logβ [CuH4L]” value [1] was 46.97(3). For the same compound, the “logβ [CuH5L]” value [1] was 52.07(3), the “logβ [CuH6L]” value [1] was 56.40(6) and the “logβ [CuH-1L]” value [1] was 6.90(5). The “logβ [CuH-3L]” value [1] was -14.19(5), the “logβ [CuHL]” value [1] was 26.20(4) and the “logβ [CuL]” value [1] was 16.83(5). The “logβ [ZnH2L]” value [1] was 28.59(5), the “logβ [ZnH3L]” value [1] was 36.47(5) and the “logβ [ZnH4L]” value [1] was 43.55(3). The “logβ [ZnH5L]” value [1] was 49.30(8), the “logβ [ZnH-1L]” value [1] was -0.2(1) and the “logβ [ZnH-2L]” value [1] was -10.8(1). The “logβ [ZnHL]” value [1] was 20.11(6), the “logβ [ZnL]” value [1] was 10.35(8) and the “logK, line of [CuH2L]” value ([1]; Table S1) was 7.00. The “logK, line of [CuH3L]” value ([1]; Table S1) was 6.21, the “logK, line of [CuH4L]” value ([1]; Table S1) was 5.09 and the “logK, line of [CuH5L]” value ([1]; Table S1) was 4.34. For the same compound, the “logK, line of [CuH-1L]” value ([1]; Table S1) was 9.93, the “logK, line of [CuHL]” value ([1]; Table S1) was 7.58 and the “logK, line of [CuL]” value ([1]; Table S1) was 9.37. For the same compound, the “logK, line of [ZnH2L]” value ([1]; Table S1) was 7.87, the “logK, line of [ZnH3L]” value ([1]; Table S1) was 7.08 and the “logK, line of [ZnH4L]” value ([1]; Table S1) was 5.75. The “logK, line of [ZnH-1L]” value ([1]; Table S1) was 10.5, the “logK, line of [ZnH-2L]” value ([1]; Table S1) was 10.7 and the “logK, line of [ZnHL]” value ([1]; Table S1) was 8.48. For the same compound, the “logK, line of [ZnL]” value ([1]; Table S1) was 9.77.
